# In patent US8835509B2, “Self emulsifying drug delivery system for a curcuminoid based composition” (Arbro Pharmaceuticals Ltd., priority 2010, dated 2014):
# Read-outs that look alike come from different tables or passages of the source.
# Key:
# [1] = rats, oral administration of 400 mg of curcumins, cited from earlier work
# [2] = Solubility test of curcumin in oils, surfactants, milk, BSA and casein; type: physicochemical; details: thermodynamic from solid
# Procedure: The solubility of curcumin in a number of oils such as citronella oil, castor oil, ethyl oleate, and palm rose oil, coconut oil, CAPRYOL™ 90 and a number of surfactants such as TWEEN® 80, CREMOPHOR® EL, PEG 200 and TRANSCUTOL® HP were determined in order to find out the appropriate oils and surfactants as compositions of SNEDDS. Solubility was also determined in milk, BSA and casein.
# An excess amount of curcumin was added to 5 ml of oil or surfactant solutions. The resultant mixture was shaken reciprocally at 37° C. for 72 h, followed by centrifugation at 12000 rpm for 10 min. The supernatant was filtered through a membrane filter (0.45 μm) to remove the remaining insoluble curcumin. After the appropriate dilution with methanol, the drug concentration in the filtrate was quantified by HPLC.
# [3] = rat intestine in vitro, cited from earlier work
smiles,measurement,setting,value
"COc1cc(/C=C/C(=O)/C=C(O)/C=C/c2ccc(O)c(OC)c2)ccc1O [Curcumin, curcumin]",curcumin in portal blood,[1]; 15 minute to 24 hour after administration,trace amount
same,curcumin in heart blood,[1],no curcumin was found
same,solubility at 72 h,"[2]; 37 °C, plasma or biological fluid, in Casein, read-out: Solubility of Curcumin in milk, BSA and Casein",14 µg/mL
same,solubility at 72 h,"[2]; 37 °C, plasma or biological fluid, in Milk, read-out: Solubility of Curcumin in milk, BSA and Casein",23800 µg/mL
same,solubility at 72 h,"[2]; Almond oil, oil or lipid, in Almond, 37° C., 72 h, read-out: Solubility of Curcumin in oils, Sol",1250 µg/mL
same,solubility at 72 h,"[2]; Castor oil, oil or lipid, in Castor, 37° C., 72 h, read-out: Solubility of Curcumin in oils, Sol",4420 µg/mL
same,solubility at 72 h,"[2]; Citronella oil, oil or lipid, in Citronella, 37° C., 72 h, read-out: Solubility of Curcumin in oils, Sol",13200 µg/mL
same,solubility at 72 h,"[2]; Lavender oil, oil or lipid, in Lavender, 37° C., 72 h, read-out: Solubility of Curcumin in oils, Sol",3440 µg/mL
same,solubility at 72 h,"[2]; Palm Rose oil, oil or lipid, in Palm Rose, 37° C., 72 h, read-out: Solubility of Curcumin in oils, Sol",6030 µg/mL
same,solubility at 72 h,"[2]; aqueous with cosolvent or surfactant or cyclodextrin, in TWEEN® 60 (100% conc), 37° C., 72 h, read-out: Solubility of Curcumin in surfactants, Sol",34 µg/mL
same,solubility at 72 h,"[2]; aqueous with cosolvent or surfactant or cyclodextrin, in TWEEN® 80 (100% conc), 37° C., 72 h, read-out: Solubility of Curcumin in surfactants, Sol",484 µg/mL
same,solubility at 72 h,"[2]; bovine, 37 °C, plasma or biological fluid, in BSA, read-out: Solubility of Curcumin in milk, BSA and Casein",24 µg/mL
same,solubility at 72 h,"[2]; coconut oil, oil or lipid, in Cocconut Oil, 37° C., 72 h, read-out: Solubility of Curcumin in oils, Sol",1680 µg/mL
same,solubility at 72 h,"[2]; oil or lipid, in Arachis Oil, 37° C., 72 h, read-out: Solubility of Curcumin in oils, Sol",160 µg/mL
same,solubility at 72 h,"[2]; oil or lipid, in CAPRYOL™ 90, 37° C., 72 h, read-out: Solubility of Curcumin in oils, Sol",7580 µg/mL
same,solubility at 72 h,"[2]; oil or lipid, in Emu oil, 37° C., 72 h, read-out: Solubility of Curcumin in oils, Sol",1580 µg/mL
same,solubility at 72 h,"[2]; oil or lipid, in Ethyl Oleate, 37° C., 72 h, read-out: Solubility of Curcumin in oils, Sol",589 µg/mL
same,solubility at 72 h,"[2]; oil or lipid, in Glyc Mono ol, 37° C., 72 h, read-out: Solubility of Curcumin in oils, Sol",154 µg/mL
same,solubility at 72 h,"[2]; oil or lipid, in IPM, 37° C., 72 h, read-out: Solubility of Curcumin in oils, Sol",1130 µg/mL
same,solubility at 72 h,"[2]; oil or lipid, in Labrafilm F 1944, 37° C., 72 h, read-out: Solubility of Curcumin in oils, Sol",2560 µg/mL
same,solubility at 72 h,"[2]; oil or lipid, in Labrafilm F2125, 37° C., 72 h, read-out: Solubility of Curcumin in oils, Sol",3590 µg/mL
same,solubility at 72 h,"[2]; oil or lipid, in Lauroglycol, 37° C., 72 h, read-out: Solubility of Curcumin in oils, Sol",2610 µg/mL
same,solubility at 72 h,"[2]; oil or lipid, in Light Paraffin, 37° C., 72 h, read-out: Solubility of Curcumin in oils, Sol",7 µg/mL
same,solubility at 72 h,"[2]; oil or lipid, in Linseed Oil, 37° C., 72 h, read-out: Solubility of Curcumin in oils, Sol",277 µg/mL
same,solubility at 72 h,"[2]; olive oil, oil or lipid, in Oilve, 37° C., 72 h, read-out: Solubility of Curcumin in oils, Sol",501 µg/mL
same,solubility at 72 h,"[2]; organic solvent or mixture, in CREMOPHOR® EL (100% conc), 37° C., 72 h, read-out: Solubility of Curcumin in surfactants, Sol",36600 µg/mL
same,solubility at 72 h,"[2]; organic solvent or mixture, in CREMOPHOR® RH (100% conc), 37° C., 72 h, read-out: Solubility of Curcumin in surfactants, Sol",38700 µg/mL
same,solubility at 72 h,"[2]; organic solvent or mixture, in LABRASOL® (100% conc), 37° C., 72 h, read-out: Solubility of Curcumin in surfactants, Sol",846 µg/mL
same,solubility at 72 h,"[2]; organic solvent or mixture, in PEG 200 (100% conc), 37° C., 72 h, read-out: Solubility of Curcumin in surfactants, Sol",1040 µg/mL
same,solubility at 72 h,"[2]; organic solvent or mixture, in PEG 400 (100% conc), 37° C., 72 h, read-out: Solubility of Curcumin in surfactants, Sol",512 µg/mL
same,solubility at 72 h,"[2]; organic solvent or mixture, in PEG 600 (100% conc), 37° C., 72 h, read-out: Solubility of Curcumin in surfactants, Sol",123 µg/mL
same,solubility at 72 h,"[2]; organic solvent or mixture, in TRANSCUTOL® HP (100% conc), 37° C., 72 h, read-out: Solubility of Curcumin in surfactants, Sol",96400 µg/mL
same,absorption of curcumin,[3]; present as micelles,56%
same,absorption of curcumin,[3]; present in a free form,47%
